Data from ChEMBL document CHEMBL1135328, “Structure-activity relationship of biaryl acylsulfonamide analogues on the human EP(3) prostanoid receptor” (Bioorg Med Chem Lett, 2002).

How the values were obtained:
[1] = molecular target: T1, Prostaglandin E2 receptor EP3 subtype (Homo sapiens, UniProt P43115); test: Binding affinity at human Prostanoid EP3 receptor.
T1 sequence (P43115 whole entry): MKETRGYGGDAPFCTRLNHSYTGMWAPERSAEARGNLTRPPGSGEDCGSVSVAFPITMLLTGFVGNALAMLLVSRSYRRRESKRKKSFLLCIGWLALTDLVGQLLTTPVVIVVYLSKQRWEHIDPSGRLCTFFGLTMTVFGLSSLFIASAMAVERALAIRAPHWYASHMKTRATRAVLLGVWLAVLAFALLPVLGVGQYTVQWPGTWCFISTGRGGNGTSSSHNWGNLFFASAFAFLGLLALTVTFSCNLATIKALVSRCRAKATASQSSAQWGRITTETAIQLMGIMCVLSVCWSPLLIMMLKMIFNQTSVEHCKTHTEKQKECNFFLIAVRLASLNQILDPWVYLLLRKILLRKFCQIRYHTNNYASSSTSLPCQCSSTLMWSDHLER

[2] = molecular target: T2, Prostaglandin E2 receptor EP1 subtype (Homo sapiens, UniProt P34995); test: Binding affinity at human Prostanoid EP1 receptor.
T2 sequence (P34995 whole entry): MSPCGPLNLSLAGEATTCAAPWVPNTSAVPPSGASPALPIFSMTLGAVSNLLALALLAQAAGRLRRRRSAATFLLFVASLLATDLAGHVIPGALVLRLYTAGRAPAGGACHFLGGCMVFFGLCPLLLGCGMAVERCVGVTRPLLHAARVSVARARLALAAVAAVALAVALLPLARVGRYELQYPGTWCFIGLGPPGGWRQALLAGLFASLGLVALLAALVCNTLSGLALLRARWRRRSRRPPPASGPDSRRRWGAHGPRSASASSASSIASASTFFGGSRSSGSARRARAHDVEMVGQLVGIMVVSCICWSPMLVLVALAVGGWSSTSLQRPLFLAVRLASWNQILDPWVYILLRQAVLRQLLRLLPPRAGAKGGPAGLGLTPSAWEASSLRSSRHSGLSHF

[3] = molecular target: Prostaglandin E2 receptor EP2 subtype (Homo sapiens, UniProt P43116); test: Binding affinity at human Prostanoid EP2 receptor.
[4] = molecular target: Prostaglandin E2 receptor EP4 subtype (Homo sapiens, UniProt P35408); test: Binding affinity at human Prostanoid EP4 receptor.
[5] = molecular target: Prostaglandin F2-alpha receptor (Homo sapiens, UniProt P43088); test: Inhibitory constant against Prostanoid FP receptor
Prostacyclin receptor = Prostacyclin receptor (Homo sapiens, UniProt P43119); test: Inhibitory constant against Prostanoid IP receptor
[6] = molecular target: T3, Prostaglandin D2 receptor (Homo sapiens, UniProt Q13258); test: Inhibitory constant against Prostanoid DP receptor
T3 sequence (Q13258 whole entry): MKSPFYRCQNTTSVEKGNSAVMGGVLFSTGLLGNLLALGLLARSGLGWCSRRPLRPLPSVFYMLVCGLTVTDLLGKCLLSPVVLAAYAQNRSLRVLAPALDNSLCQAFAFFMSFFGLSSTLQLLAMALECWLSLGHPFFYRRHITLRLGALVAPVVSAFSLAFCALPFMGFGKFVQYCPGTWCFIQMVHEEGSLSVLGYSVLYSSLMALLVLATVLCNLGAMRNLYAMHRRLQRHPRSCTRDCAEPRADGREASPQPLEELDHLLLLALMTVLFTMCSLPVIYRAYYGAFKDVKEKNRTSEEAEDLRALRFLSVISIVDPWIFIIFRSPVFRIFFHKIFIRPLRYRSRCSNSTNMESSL

Chain of Prostaglandin E2 receptor EP4 subtype (P35408 whole entry): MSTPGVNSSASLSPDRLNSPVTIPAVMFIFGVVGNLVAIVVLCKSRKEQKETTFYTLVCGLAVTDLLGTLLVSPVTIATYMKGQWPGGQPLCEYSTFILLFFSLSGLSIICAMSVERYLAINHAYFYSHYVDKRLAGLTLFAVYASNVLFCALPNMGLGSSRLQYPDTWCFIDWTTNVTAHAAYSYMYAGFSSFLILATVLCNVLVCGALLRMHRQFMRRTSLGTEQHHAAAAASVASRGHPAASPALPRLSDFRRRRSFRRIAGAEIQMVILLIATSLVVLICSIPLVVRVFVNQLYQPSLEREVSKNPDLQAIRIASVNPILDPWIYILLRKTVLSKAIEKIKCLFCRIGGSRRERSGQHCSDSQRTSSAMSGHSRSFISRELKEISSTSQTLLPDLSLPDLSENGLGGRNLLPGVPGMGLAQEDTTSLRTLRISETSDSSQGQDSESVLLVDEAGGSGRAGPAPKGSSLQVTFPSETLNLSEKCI
Chain of Prostaglandin E2 receptor EP2 subtype (P43116 whole entry): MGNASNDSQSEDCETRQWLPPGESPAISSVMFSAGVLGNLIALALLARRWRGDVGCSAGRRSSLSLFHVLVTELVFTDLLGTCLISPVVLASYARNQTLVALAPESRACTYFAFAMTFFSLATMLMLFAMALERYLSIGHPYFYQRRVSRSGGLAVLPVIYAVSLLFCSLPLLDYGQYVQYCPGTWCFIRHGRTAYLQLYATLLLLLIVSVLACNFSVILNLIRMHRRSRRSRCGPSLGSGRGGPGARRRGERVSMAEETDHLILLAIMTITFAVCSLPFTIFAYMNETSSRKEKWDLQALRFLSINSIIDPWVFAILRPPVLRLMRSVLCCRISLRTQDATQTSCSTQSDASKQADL
Chain of Prostacyclin receptor (P43119 whole entry): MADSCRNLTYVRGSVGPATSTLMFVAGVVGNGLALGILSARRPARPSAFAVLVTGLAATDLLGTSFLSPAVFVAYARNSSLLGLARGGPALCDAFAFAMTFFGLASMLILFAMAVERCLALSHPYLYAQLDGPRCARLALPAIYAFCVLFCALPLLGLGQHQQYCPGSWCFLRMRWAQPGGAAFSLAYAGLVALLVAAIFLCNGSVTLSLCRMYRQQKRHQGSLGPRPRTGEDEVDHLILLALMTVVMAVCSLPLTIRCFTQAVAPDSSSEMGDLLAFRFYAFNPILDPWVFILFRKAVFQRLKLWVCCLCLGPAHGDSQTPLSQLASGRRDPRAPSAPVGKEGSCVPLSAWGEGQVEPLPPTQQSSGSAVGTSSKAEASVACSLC
Chain of Prostaglandin F2-alpha receptor (P43088 whole entry): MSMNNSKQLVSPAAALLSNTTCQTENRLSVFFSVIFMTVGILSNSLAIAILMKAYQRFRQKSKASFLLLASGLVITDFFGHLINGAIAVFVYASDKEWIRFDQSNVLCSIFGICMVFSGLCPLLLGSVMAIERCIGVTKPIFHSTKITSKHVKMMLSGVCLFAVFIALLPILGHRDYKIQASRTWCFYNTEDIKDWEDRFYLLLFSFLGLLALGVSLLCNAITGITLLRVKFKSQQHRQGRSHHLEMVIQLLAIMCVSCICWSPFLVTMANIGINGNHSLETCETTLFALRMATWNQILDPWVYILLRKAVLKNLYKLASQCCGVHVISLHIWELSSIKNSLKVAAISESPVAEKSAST

SMILES | Ki [1] [nM] | Ki [2] [nM] | Ki [3] [nM] | Ki [4] [nM] | Ki [5] [nM] | Ki (Prostacyclin receptor) [nM] | Ki [6] [nM]
O=C(CCc1ccccc1-c1cccc(/C=C/c2ccc3ccc(Cl)cc3n2)c1)NS(=O)(=O)c1cccs1 | 120 | 49000 | 16000 | 19000 | – | – | –
CS(=O)(=O)c1cccc(-c2ccccc2CCC(=O)NS(=O)(=O)c2cccs2)c1 | 5900 | > 100000 | > 100000 | > 100000 | – | – | –
CCCCc1nn(-c2ccccc2C(F)(F)F)c(=O)n1Cc1ccc(-c2ccccc2S(=O)(=O)NC(=O)c2cccs2)cc1 | 7000 | > 10000 | > 10000 | 46 | – | – | –
O=C(CCCc1ccccc1-c1ccc(CSCCc2ccccc2)cc1)NS(=O)(=O)c1cccs1 | 200 | 3000 | 1800 | 700 | – | – | –
O=C(/C=C/c1ccccc1-c1ccc(Cl)c(Cl)c1)NS(=O)(=O)c1cccs1 | 25 | 8200 | 27000 | 3700 | 17000 | 7300 | 830
O=C(O)CCc1ccccc1-c1ccc(CSCCc2ccccc2)cc1 | 740 | 8600 | 140 | 4400 | – | – | –
c1ccc(CCSCc2ccc(-c3ccccc3CCc3nnn[nH]3)cc2)cc1 | 1000 | 4900 | 63 | 2600 | – | – | –
O=C(/C=C/c1ccccc1-c1cccc(/C=C/c2ccc3ccc(Cl)cc3n2)c1)NS(=O)(=O)c1cccs1 | 110 | 41000 | 70000 | 28000 | – | – | –
CSc1cccc(-c2ccccc2CCC(=O)NS(=O)(=O)c2cccs2)c1 | 240 | 27000 | 31000 | 25000 | – | – | –
O=C(CCc1ccccc1-c1ccc(CSCCc2ccccc2)cc1)NS(=O)(=O)c1cccs1 | 46 | 1700 | 2700 | 1100 | – | – | –
O=C(CCc1ccccc1-c1ccccc1CSCCc1ccccc1)NS(=O)(=O)c1cccs1 | 510 | 83 | 3800 | 1500 | – | – | –
O=C(NS(=O)(=O)CCc1ccccc1-c1ccc(CSCCc2ccccc2)cc1)c1cccs1 | 480 | 2800 | 2500 | 690 | – | – | –
O=C(CCc1ccccc1-c1cccc(CSCCc2ccccc2)c1)NS(=O)(=O)c1cccs1 | 27 | 820 | 2000 | 1000 | – | – | –
O=S(=O)(CCc1ccccc1-c1ccc(CSCCc2ccccc2)cc1)NS(=O)(=O)c1cccs1 | 610 | 7500 | 3000 | 1100 | – | – | –

Now from value to compound:

Ki [1] [nM] | Ki [2] [nM] | Ki [3] [nM] | Ki [4] [nM] | Ki [5] [nM] | Ki (Prostacyclin receptor) [nM] | Ki [6] [nM] | SMILES
53 | 4600 | 2900 | 1600 | – | – | – | Cc1cccc(OCCCOc2ccc(-c3ccccc3CCC(=O)NS(=O)(=O)c3cccs3)cc2)c1
150 | 15000 | 8600 | 2900 | – | – | – | Cc1cccc(OCCCOc2ccc(-c3ccccc3CNC(=O)NS(=O)(=O)c3cccs3)cc2)c1
340 | 5800 | 2900 | 1100 | – | – | – | Cc1cccc(OCCCOc2ccc(-c3ccccc3CC(C)C(=O)NS(=O)(=O)c3cccs3)cc2)c1 (configuration not stated)
440 | 1800 | 2900 | 1000 | – | – | – | Cc1cccc(OCCCOc2ccc(-c3ccccc3CC(C)(C)C(=O)NS(=O)(=O)c3cccs3)cc2)c1
16 | 13000 | 4900 | 7100 | – | – | – | O=C(CCc1ccccc1-c1ccc(OCCCOc2cccc(CSCCc3ccccc3)c2)cc1)NS(=O)(=O)c1cccs1
120 | 2800 | 2100 | 730 | – | – | – | Cc1cccc(OCCCOc2ccc(-c3ccccc3COC(=O)NS(=O)(=O)c3cccs3)cc2)c1
330 | 3700 | 590 | 850 | – | – | – | O=C(Cc1ccccc1-c1ccc(CSCCc2ccccc2)cc1)NS(=O)(=O)c1cccs1
